Test results: US20160002217A1, “FUNGICIDAL 3--OXADIAZOLONE DERIVATIVES” (BAYER CROPSCIENCE AG, priority 2013, published 2016)
Like-named read-outs stand apart in the source and are kept apart here. Marks after values point to notes of the source that are not given here.

Experiments:
[1] = Measurement of log P values by HPLC on reversed phase columns (EEC directive 79/831 Annex V.A8); details: for chromatographic logP: pH 2.7; for LogP: Table 1, compounds of formula (I), method [a]: LC-MS at pH 2.7, 0.1% formic acid in water / acetonitrile gradient
Phytophthora infestans = format: in vivo; details: tomato plants, preventive spray, 500 ppm of active ingredient, evaluated 5 days after inoculation
Septoria tritici = experiment: In vivo preventive test on Septoria tritici (leaf spot on wheat); details: wheat plants, preventive spray, 500 ppm of active ingredient, evaluated 24 days after inoculation
Procedure: (§1) The tested active ingredients are prepared by homogenization in a mixture of acetone/Dimethyl sulfoxide/Tween®, and then diluted with water to obtain the desired active material concentration.
(§2) The young plants of wheat are treated by spraying the active ingredient prepared as described above. Control plants are treated only with an aqueous solution of acetone/Dimethyl sulfoxide/Tween®.
After 24 hours, the plants are contaminated by spraying the leaves with an aqueous suspension of Septoria tritici spores. The contaminated wheat plants are incubated for 72 hours at 18° C. and at 100% relative humidity and then for 21 days at 20° C. and at 90% relative humidity.
The test is evaluated 24 days after the inoculation. 0% means an efficacy which corresponds to that of the control plants while an efficacy of 100% means that no disease is observed.

Alternaria brassicae = experiment: In vivo preventive test on Alternaria brassicae (leaf spot on radish); details: radish plants, preventive spray, 500 ppm of active ingredient, evaluated 6 days after inoculation
Procedure: as §1
The young plants of radish are treated by spraying the active ingredient prepared as described above. Control plants are treated only with an aqueous solution of acetone/Dimethyl sulfoxide/Tween®.
After 24 hours, the plants are contaminated by spraying the leaves with an aqueous suspension of Alternaria brassicae spores. The contaminated radish plants are incubated for 6 days at 20° C. and at 100% relative humidity.
The test is evaluated 6 days after the inoculation. 0% means an efficacy which corresponds to that of the control plants while an efficacy of 100% means that no disease is observed.

[2] = pH 2.7
Pyrenophora teres = experiment: In vivo preventive test on Pyrenophora teres (net blotch on barley); details: barley plants, preventive spray, 500 ppm of active ingredient, evaluated 14 days after inoculation
Procedure: as §1
The young plants of barley are treated by spraying the active ingredient prepared as described above. Control plants are treated only with an aqueous solution of acetone/Dimethyl sulfoxide/Tween®.
After 24 hours, the plants are contaminated by spraying the leaves with an aqueous suspension of Pyrenophora teres spores. The contaminated barley plants are incubated for 48 hours at 20° C. and at 100% relative humidity and then for 12 days at 20° C. and at 70-80% relative humidity.
The test is evaluated 14 days after the inoculation. 0% means an efficacy which corresponds to that of the control plants while an efficacy of 100% means that no disease is observed.

Plasmopara viticola = experiment: Plasmopara test (grapevines) / preventive; format: in vivo; details: grapevine plants, preventive spray, 10 ppm of active ingredient, evaluated 6 days after inoculation
Procedure: Solvent: 24.5 parts by weight of acetone • 24.5 parts by weight of dimethylacetamide
Emulsifier: 1 part by weight of alkylaryl polyglycol ether
To produce a suitable preparation of active compound, 1 part by weight of active compound is mixed with the stated amounts of solvent and emulsifier, and the concentrate is diluted with water to the desired concentration.
To test for preventive activity, young plants are sprayed with the preparation of active compound at the stated rate of application. After the spray coating has dried on, the plants are inoculated with an aqueous spore suspension of Plasmopara viticola and then remain for 1 day in an incubation cabinet at approximately 20° C. and a relative atmospheric humidity of 100%. The plant is subsequently placed for 4 days in a greenhouse at approximately 21° C. and a relative atmospheric humidity of approximately 90%. The plants are then misted and placed for 1 day in an incubation cabinet.
The test is evaluated 6 days after the inoculation. 0% means an efficacy which corresponds to that of the untreated control, while an efficacy of 100% means that no disease is observed.

Pyricularia oryzae = format: in vivo; details: rice plants, preventive spray, 500 ppm of active ingredient, evaluated 6 days after inoculation
Puccinia recondita = experiment: In vivo preventive test on Puccinia recondita (brown rust on wheat); details: wheat plants, preventive spray, 500 ppm of active ingredient, evaluated 11 days after inoculation
Procedure: as §1, §2
After 24 hours, the plants are contaminated by spraying the leaves with an aqueous suspension of Puccinia recondita spores. The contaminated wheat plants are incubated for 24 hours at 20° C. and at 100% relative humidity and then for 10 days at 20° C. and at 70-80% relative humidity.
(§3) The test is evaluated 11 days after the inoculation. 0% means an efficacy which corresponds to that of the control plants while an efficacy of 100% means that no disease is observed.

Uromyces appendiculatus = experiment: In vivo preventive test on Uromyces appendiculatus (bean rust); details: bean plants, preventive spray, 500 ppm of active ingredient, evaluated 11 days after inoculation
Procedure: as §1
The young plants of bean are treated by spraying the active ingredient prepared as described above. Control plants are treated only with an aqueous solution of acetone/Dimethyl sulfoxide/Tween®.
After 24 hours, the plants are contaminated by spraying the leaves with an aqueous suspension of Uromyces appendiculatus spores. The contaminated bean plants are incubated for 24 hours at 20° C. and at 100% relative humidity and then for 10 days at 20° C. and at 70-80% relative humidity.
as §3

Cn1oc(=O)nc1/C(=N\OCc1cccc(N)n1)c1ccccn1 [Example 9, 3-[(Z)-{[(6-aminopyridin-2-yl)methoxy]imino}(pyridine-2-yl)methyl]-2-methyl-1,2,4-oxadiazol-5(2H)-one]
chromatographic logP [1]: 0.41

Cn1c(C(=NOCc2cccc(NC(=O)OC(C)(C)C)n2)c2ccccn2)noc1=O [Example 13]
% efficacy (Phytophthora infestans): 98%
% efficacy (Septoria tritici): 75%
% efficacy (Alternaria brassicae): 91%
LogP [2]: 3.17^[a]
% efficacy (Pyrenophora teres): 77%

Cn1c(C(=NOCc2csc(NC(=O)OC(C)(C)C)n2)c2ccsc2)noc1=O [Example 16]
% efficacy (Phytophthora infestans): 100%
% efficacy (Plasmopara viticola): 99%
LogP [2]: 3.39^[a]

C#CCCOC(=O)Nc1cccc(CO/N=C(/c2ccccn2)c2nc(=O)on2C)n1 [Example 17, But-3-yn-1-yl {6-[({[(Z)-(2-methyl-5-oxo-2,5-dihydro-1,2,4-oxadiazol-3-yl)(pyridine-2-yl)methylene]amino}oxy)methyl]pyridin-2-yl}carbamate]
chromatographic logP [1]: 2.1

C#CCCOC(=O)Nc1cccc(CON=C(c2ccccn2)c2nc(=O)on2CC)n1 [Example 19]
LogP [1]: 2.35^[a]

Cn1oc(=O)nc1/C(=N\OCc1cccc(NC(=O)OC(C)(C)C)n1)c1ccccn1 [Example 22, tert-butyl {6-[({[(Z)-(2-methyl-5-oxo-2,5-dihydro-1,2,4-oxadiazol-3-yl)(pyridine-2-yl)methylene]amino}oxy)methyl]pyridin-2-yl}carbamate]
% efficacy (Phytophthora infestans): 99%
% efficacy (Pyricularia oryzae): 75%
% efficacy (Puccinia recondita): 88%
% efficacy (Uromyces appendiculatus): 100%
chromatographic logP [1]: 2.68

Cn1c(C(=NOCc2csc(N)n2)c2ccsc2)noc1=O [Example 23]
% efficacy (Phytophthora infestans): 98%
LogP [1]: 1.35^[a]

CC(C)(C)OC(=O)Nc1cccc(CON=C(c2cccnc2)c2noc(=O)[nH]2)n1 [Example 32, tert-butyl {6-[({[(5-oxo-4,5-dihydro-1,2,4-oxadiazol-3-yl)(pyridin-3-yl)methylene]amino}oxy)methyl]pyridin-2-yl}carbamate]
chromatographic logP [1]: 2.59

Cn1c(C(=NOCc2cccc(NC(=O)OC(C)(C)C)n2)c2cccnc2)noc1=O [Example 33, tert-butyl {6-[({[(4-methyl-5-oxo-4,5-dihydro-1,2,4-oxadiazol-3-yl)(pyridin-3-yl)methylene]amino}oxy)methyl]pyridin-2-yl}carbamate]
% efficacy (Phytophthora infestans): 78%
chromatographic logP [1]: 2.75

CCCCCOC(=O)Nc1cccc(CON=C(c2ccncc2)c2noc(=O)n2C)n1 [Example 44]
% efficacy (Phytophthora infestans): 98%
LogP [1]: 3.29^[a]

C#CCCOC(=O)Nc1cccc(CON=C(c2ccncc2)c2noc(=O)n2C)n1 [Example 45]
% efficacy (Phytophthora infestans): 100%
% efficacy (Plasmopara viticola): 91%
LogP [2]: 2.21^[a]

C#CCCOC(=O)Nc1cccc(CON=C(c2cccnc2)c2nc(=O)on2C)n1 [Example 56]
% efficacy (Phytophthora infestans): 89%
LogP [2]: 1.88^[a]

CCCCOC(=O)Nc1cccc(CON=C(c2cccnc2)c2nc(=O)on2C)n1 [Example 57]
% efficacy (Phytophthora infestans): 95%
LogP [2]: 2.47^[a]

CCCCC(=O)Nc1cccc(CON=C(c2cccnc2)c2noc(=O)n2C)n1 [Example 59]
% efficacy (Phytophthora infestans): 78%
LogP [2]: 2.51^[a]

CCCCCC(=O)Nc1cccc(CON=C(c2ncccn2)c2noc(=O)n2C)n1 [Example 60]
% efficacy (Phytophthora infestans): 90%
LogP [2]: 2.61^[a]

CCCCCC(=O)Nc1cccc(CON=C(c2cccnc2)c2nc(=O)on2C)n1 [Example 63]
% efficacy (Phytophthora infestans): 75%
LogP [2]: 2.39^[a]

Cn1c(C(=NOCc2csc(NC(=O)COc3ccccc3)n2)c2ccsc2)noc1=O [Example 67]
% efficacy (Phytophthora infestans): 98%
LogP [2]: 3.22^[a]

Cn1c(C(=NOCc2csc(NC(=O)C3CCc4ccccc4O3)n2)c2ccsc2)noc1=O (stereo not drawn) [Example 69]
% efficacy (Phytophthora infestans): 75%
% efficacy (Plasmopara viticola): 92%
LogP [2]: 3.62^[a]

CCCC(C)C(=O)Nc1nc(CON=C(c2ccsc2)c2noc(=O)n2C)cs1 (stereo not drawn) [Example 71]
% efficacy (Phytophthora infestans): 100%
LogP [2]: 3.39^[a]

CCCCCC(=O)Nc1nc(CON=C(c2ccsc2)c2noc(=O)n2C)cs1 [Example 73]
% efficacy (Phytophthora infestans): 100%
LogP [2]: 3.43^[a]

CCCCCOC(=O)Nc1nc(CON=C(c2cccs2)c2noc(=O)n2C)cs1 [Example 74]
% efficacy (Phytophthora infestans): 85%
LogP [2]: 3.79^[a]

CC(Oc1ccccc1)C(=O)Nc1nc(CON=C(c2cccs2)c2noc(=O)n2C)cs1 (stereo not drawn) [Example 80]
% efficacy (Phytophthora infestans): 100%
% efficacy (Plasmopara viticola): 100%
LogP [2]: 3.42^[a]

CCCCOC(=O)Nc1cccc(CON=C(c2ccncc2)c2noc(=O)n2C)n1 [Example 82]
% efficacy (Phytophthora infestans): 100%
LogP [2]: 2.80^[a]

CCCCC(=O)Nc1cccc(CON=C(c2ccncc2)c2noc(=O)n2C)n1 [Example 83]
% efficacy (Phytophthora infestans): 100%
LogP [2]: 2.34^[a]

CCCCCC(=O)Nc1cccc(CON=C(c2ccncc2)c2noc(=O)n2C)n1 [Example 84]
% efficacy (Phytophthora infestans): 100%
LogP [2]: 2.71^[a]

CC(C)(C)OC(=O)Nc1cccc(CO/N=C(\C#N)c2ccccn2)n1 [Example IV-02, tert-butyl {6-[({[(Z)-cyano(pyridin-2-yl)methylene]amino}oxy)methyl]pyridin-2-yl}carbamate]
chromatographic logP [1]: 3.5

CC(C)(C)OC(=O)Nc1cccc(CON=C(C#N)c2cccnc2)n1 [Example IV-07, tert-butyl {6-[({[cyano(pyridin-3-yl)methylene]amino}oxy)methyl]pyridin-2-yl}carbamate]
chromatographic logP [1]: 3.19

CC(C)(C)OC(=O)Nc1cccc(CON=C(C(N)=NO)c2cccnc2)n1 [Example V-03, tert-butyl {6-[({[2-amino-2-(hydroxyimino)-1-(pyridin-3-yl)ethylidene]amino}oxy)methyl]pyridin-2-yl}carbamate]
chromatographic logP [1]: 1.81

CN(O)C(=N)/C(=N\OCc1cccc(NC(=O)OC(C)(C)C)n1)c1ccccn1 [Example VI-01, tert-butyl (6-{[({(1Z)-2-[hydroxy(methyl)amino]-2-imino-1-(pyridin-2-yl)ethylidene}amino)oxy]methyl}pyridin-2-yl)carbamate]
chromatographic logP [1]: 1.54
